In ChEMBL document CHEMBL6092218 (J Med Chem, 2024):
pIC50: −log10 of the molar value. Activity calls are given as the source filed them. No cut-off for these calls is given here.

Key:
[1] = Metabolic stability in human liver microsomes assessed as apparent intrinsic clearance at 1 uM measured upto 60 mins in presence of NADPH by LC-MS/MS analysis; format: ADME, Microsome; conditions: read-out: CLH
[2] = Apparent permeability of compound in dog RRCK cells measured after 1.5 hrs by LC-MS/MS analysis; conditions: MDCK
[3] = molecular target: Cytochrome P450 3A4 (Homo sapiens, UniProt P08684); test: Inhibition of CYP3A4 in human liver microsomes using midazolam as substrate incubated for 4 mins by LC-MS/SM analysis
[4] = Volume of distribution at steady state in mouse at 30 mg/kg, po measured upto 24 hrs by LC-MS/MS analysis; format: ADME, organism-based; conditions: in vivo
[5] = Bioavailability in mouse at 30 mg/kg, po measured upto 24 hrs by LC-MS/MS analysis; format: ADME, organism-based; conditions: in vivo
[6] = Clearance in mouse blood at 30 mg/kg, po measured upto 24 hrs by LC-MS/MS analysis; format: ADME, organism-based; conditions: whole blood
[7] = system: MIA PaCa-2; test: Antiproliferative activity against human MIA PaCa-2 cells incubated for 6 days by CyQUANT cell proliferation assay; format: functional, cell-based; conditions: MIA PaCa-2, 144 h
[8] = Half-life in mouse at 30 mg/kg, po measured upto 24 hrs by LC-MS/MS analysis; format: ADME, organism-based; conditions: in vivo
[9] = system: MIA PaCa-2; test: Antitumor activity against human MIA PaCa-2 cells xenografted in NSG mouse assessed as tumor growth inhibition at 30 mg/kg, po qd measured after 24 days by caliper method; format: functional; conditions: MIA PaCa-2, 576 h, time 24 day, read-out: TGI
[10] = system: MIA PaCa-2; test: Antitumor activity against human MIA PaCa-2 cells xenografted in NSG mouse assessed as tumor growth inhibition at 15 mg/kg, po bid measured after 24 days by caliper method; format: functional; conditions: MIA PaCa-2, 576 h, time 24 day, read-out: TGI
[11] = system: MIA PaCa-2; test: Antitumor activity against human MIA PaCa-2 cells xenografted in NSG mouse assessed as time duration of coverage of MIA PaCa-2 IC90 in plasma at 30 mg/kg, po qd; format: functional
[12] = system: MIA PaCa-2; test: Antitumor activity against human MIA PaCa-2 cells xenografted in NSG mouse assessed as time duration of coverage of MIA PaCa-2 IC50 in plasma at 15 mg/kg, po qd; format: functional
[13] = system: MIA PaCa-2; test: Antitumor activity against human MIA PaCa-2 cells xenografted in NSG mouse assessed as time duration of coverage of MIA PaCa-2 IC50 in plasma at 30 mg/kg, po qd; format: functional
[14] = system: MIA PaCa-2; test: Antitumor activity against human MIA PaCa-2 cells xenografted in NSG mouse assessed as time duration of coverage of MIA PaCa-2 IC90 in plasma at 10 mg/kg, po bid; format: functional
[15] = system: MIA PaCa-2; test: Antitumor activity against human MIA PaCa-2 cells xenografted in po dosed NSG mouse assessed as reduction in tumor volume measured after 24 days by caliper method; format: functional, organism-based; conditions: time 24.0 day
[16] = system: MIA PaCa-2; test: Antitumor activity against human MIA PaCa-2 cells xenografted in NSG mouse assessed as tumor growth inhibition at 10 mg/kg, po bid measured after 24 days by caliper method; format: functional; conditions: MIA PaCa-2, 576 h, time 24 day, read-out: TGI
[17] = system: MIA PaCa-2; test: Antitumor activity against human MIA PaCa-2 cells xenografted in NSG mouse assessed as time duration of coverage of MIA PaCa-2 IC50 in plasma at 15 mg/kg, po bid; format: functional
[18] = system: MIA PaCa-2; test: Antitumor activity against human MIA PaCa-2 cells xenografted in NSG mouse assessed as tumor growth inhibition at 15 mg/kg, po qd measured after 24 days by caliper method; format: functional; conditions: MIA PaCa-2, 576 h, time 24 day, read-out: TGI
[19] = system: MIA PaCa-2; test: Antitumor activity against human MIA PaCa-2 cells xenografted in NSG mouse assessed as tumor stasis at 15 mg/kg, po BID measured after 24 days; format: functional, organism-based; conditions: time 24.0 day
[20] = system: MIA PaCa-2; test: Antitumor activity against human MIA PaCa-2 cells xenografted in NSG mouse assessed as time duration of coverage of MIA PaCa-2 IC90 in plasma at 15 mg/kg, po bid; format: functional
[21] = Toxicity in NSG mouse xenografted in with human MIA PaCa-2 cells assessed as body weight loss at 15 to 30 mg/kg, po qd […]; format: organism-based; conditions: in vivo, dose 15-30 mg/kg
[22] = system: MIA PaCa-2; test: Antitumor activity against human MIA PaCa-2 cells xenografted in NSG mouse assessed as time duration of coverage of MIA PaCa-2 IC90 in plasma at 15 mg/kg, po qd; format: functional
[23] = system: MIA PaCa-2; test: Antitumor activity against human MIA PaCa-2 cells xenografted in NSG mouse assessed as tumor stasis at 30 mg/kg, po qd measured after 24 days; format: functional, organism-based; conditions: time 24.0 day
[24] = system: MIA PaCa-2; test: Antitumor activity against human MIA PaCa-2 cells xenografted in NSG mouse assessed as time duration of coverage of MIA PaCa-2 IC50 in plasma at 10 mg/kg, po bid; format: functional
[25] = Toxicity in NSG mouse xenografted in with human MIA PaCa-2 cells assessed as body weight loss at 10 to 15 mg/kg, po bid […]; format: organism-based; conditions: in vivo, dose 10-15 mg/kg

Cytochrome P450 3A4, sequence (P08684 whole entry): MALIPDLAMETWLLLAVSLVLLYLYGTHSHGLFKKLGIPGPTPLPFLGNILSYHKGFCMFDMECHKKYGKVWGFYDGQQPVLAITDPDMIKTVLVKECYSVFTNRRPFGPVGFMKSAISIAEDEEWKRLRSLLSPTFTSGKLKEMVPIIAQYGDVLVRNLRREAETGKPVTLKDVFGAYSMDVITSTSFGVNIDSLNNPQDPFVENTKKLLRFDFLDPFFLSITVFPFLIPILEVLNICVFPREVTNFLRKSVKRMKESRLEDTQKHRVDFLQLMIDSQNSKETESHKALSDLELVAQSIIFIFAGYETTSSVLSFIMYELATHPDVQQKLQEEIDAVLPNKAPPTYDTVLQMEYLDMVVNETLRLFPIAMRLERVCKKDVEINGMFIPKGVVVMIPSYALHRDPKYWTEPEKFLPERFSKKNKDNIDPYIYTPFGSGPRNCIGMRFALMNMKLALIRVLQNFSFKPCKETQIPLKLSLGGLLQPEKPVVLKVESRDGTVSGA

**Q.** With `Cc1cn(C)nc1Nc1cc2cc(-c3cncn3C)nc(N)c2cn1` as the compound, how does the microsomal CLint at 1 µM [1] read?
**A.** 8.2 µL/min/mg

**Q.** Which Papp at 1.5 h [2] does the source give for `Cn1nncc1-c1cc2cc(Nc3nn(C)c4c3[C@@H]3CC[C@H]4N(C4CCC4)C3)ncc2c(N)n1` here?
**A.** 5.2 ×10⁻⁶ cm/s

**Q.** And the microsomal CLint at 1 µM [1]?
**A.** 201 µL/min/mg

**Q.** For `Cn1nncc1-c1cc2cc(Nc3cc(C(C)(C)O)ccn3)ncc2c(N)n1`, which Papp at 1.5 h [2] is on record?
**A.** 13.3 ×10⁻⁶ cm/s

**Q.** What about the microsomal CLint at 1 µM [1] of the same compound?
**A.** < 7 µL/min/mg

**Q.** With `Cc1cn(C)nc1Nc1cc2cc(-c3cn[nH]c3C)nc(N)c2cn1` as the compound, how does the pIC50 [3] read?
**A.** 4.84

**Q.** What about the Papp at 1.5 h [2] of the same compound?
**A.** 10.8 ×10⁻⁶ cm/s

**Q.** And the microsomal CLint at 1 µM [1]?
**A.** 31.8 µL/min/mg

**Q.** With `Cc1cn(C)nc1Nc1cc2cc(-c3cnnn3C)nc(N)c2cn1` as the compound, how does the microsomal CLint at 1 µM [1] read?
**A.** 15.3 µL/min/mg

**Q.** Which results are given for `CC[C@@](C)(N)c1ccnc(Nc2cc3cc(-c4cnnn4C)nc(N)c3cn2)c1`?
**A.** Vdss [4]: 2.8 L/kg; bioavailability [5]: 3%; Papp at 1.5 h [2]: 6.4 ×10⁻⁶ cm/s; CL/F [6]: 49.4 mL/min/kg; pIC50 [7]: 8.19; microsomal CLint at 1 µM [1]: < 7 µL/min/mg; half-life [8]: 228 min

**Q.** Which Papp at 1.5 h [2] does the source give for `Cn1nncc1-c1cc2cc(Nc3cc(C(C)(C)N)ccn3)ncc2c(N)n1` here?
**A.** 1.7 ×10⁻⁶ cm/s

**Q.** What about the microsomal CLint at 1 µM [1] of the same compound?
**A.** < 7 µL/min/mg

**Q.** With `Cc1cn(C)nc1Nc1cc2cc(-c3cnccn3)nc(N)c2cn1` as the compound, how does the microsomal CLint at 1 µM [1] read?
**A.** 21.2 µL/min/mg

**Q.** With `Cc1cn(C)nc1Nc1cc2cc(C3CCc4nccn43)nc(N)c2cn1` (centres undefined) as the compound, how does the pIC50 [3] read?
**A.** < 4.65

**Q.** What about the Papp at 1.5 h [2] of the same compound?
**A.** 44.4 ×10⁻⁶ cm/s

**Q.** And the microsomal CLint at 1 µM [1]?
**A.** 28.6 µL/min/mg

**Q.** With `CCC(N)(CC)c1ccnc(Nc2cc3cc(N4CCOC4=O)nc(N)c3cn2)c1` as the compound, how does the Papp at 1.5 h [2] read?
**A.** 12.3 ×10⁻⁶ cm/s

**Q.** What about the pIC50 [7] of the same compound?
**A.** 7.89

**Q.** And the microsomal CLint at 1 µM [1]?
**A.** 19.4 µL/min/mg

**Q.** With `CC[C@](C)(N)c1ccnc(Nc2cc3cc(-c4cnnn4C)nc(N)c3cn2)c1` as the compound, how does the Vdss [4] read?
**A.** 3.2 L/kg

**Q.** And the bioavailability [5]?
**A.** 7%

**Q.** And the Papp at 1.5 h [2]?
**A.** 5.6 ×10⁻⁶ cm/s

**Q.** What about the CL/F [6] of the same compound?
**A.** 124 mL/min/kg

**Q.** What about the pIC50 [7] of the same compound?
**A.** 7.84

**Q.** What about the microsomal CLint at 1 µM [1] of the same compound?
**A.** < 7 µL/min/mg

**Q.** What about the half-life [8] of the same compound?
**A.** 36 min

**Q.** For `Cc1cn(C)nc1Nc1cc2cc(-c3sncc3C)nc(N)c2cn1`, which microsomal CLint at 1 µM [1] is on record?
**A.** 189 µL/min/mg

**Q.** With `CCn1nc(Nc2cc3cc(-c4cnnn4C)nc(N)c3cn2)c2c1[C@@H]1CC[C@H]2C(=O)N1C1CCC1` as the compound, how does the Papp at 1.5 h [2] read?
**A.** 5.2 ×10⁻⁶ cm/s

**Q.** And the microsomal CLint at 1 µM [1]?
**A.** 76.8 µL/min/mg

**Q.** What does the source list for `CCC(N)(CC)c1ccnc(Nc2cc3cc(-c4cnnn4C)nc(N)c3cn2)c1`?
**A.** inhibition in vivo at 30 mg/kg [9]: 106%; Vdss [4]: 4.9 L/kg; inhibition in vivo at 15 mg/kg [10]: 103%; T>IC90 [11]: 16 h; T>IC50 [12]: 15 h; bioavailability [5]: 96%; T>IC50 [13]: 24 h; T>IC90 [14]: 16 h; Activity [15]: Dose-dependent-effect; inhibition in vivo at 10 mg/kg [16]: 58%; T>IC50 [17]: 24 h; Papp at 1.5 h [2]: 11.1 ×10⁻⁶ cm/s; inhibition in vivo at 15 mg/kg [18]: 35%; CL/F [6]: 109 mL/min/kg; Activity [19]: Active; T>IC90 [20]: 19 h; pIC50 [7]: 8.52; microsomal CLint at 1 µM [1]: 41.1 µL/min/mg; Activity [21]: Non-toxic; T>IC90 [22]: 9 h; Activity [23]: Active; half-life [8]: 720 min; T>IC50 [24]: 21 h; Activity [25]: Non-toxic
